In the kinase profiling compilation of Christmann-Franck et al. (2016):

Assays:
Test in all cases: radiometric filter-binding kinase assay, Kinase HotSpot
Settings in all cases: compound 0.5 µM; ATP 10 µM
PRKCB1 (human) = PRKCB1 (human) (UniProt P05771)
PRKD1 (human) = PRKD1 (human) (UniProt Q15139)
CDK2 CCNA2 (human) = CDK2 CCNA2 (human) (UniProt P24941+P20248)
AURKB (human) = AURKB (human) (UniProt Q96GD4)
PIM3 (human) = PIM3 (human) (UniProt Q86V86)
STK39 (human) = STK39 (human) (UniProt Q9UEW8)
MINK1 (human) = MINK1 (human) (UniProt Q8N4C8)
MAP4K2 (human) = MAP4K2 (human) (UniProt Q12851)
[1] = target: TYK2 JH1 catalytic (human) (UniProt P29597)
AKT1 (human) = AKT1 (human) (UniProt P31749)
NEK4 (human) = NEK4 (human) (UniProt P51957)
RPS6KA3 KD1 KD2 (human) = RPS6KA3 KD1 KD2 (human) (UniProt P51812)
CSNK1E (human) = CSNK1E (human) (UniProt P49674)
IGF1R (human) = IGF1R (human) (UniProt P08069)
ACVRL1 (human) = ACVRL1 (human) (UniProt P37023)
EPHA2 (human) = EPHA2 (human) (UniProt P29317)
EPHB1 (human) = EPHB1 (human) (UniProt P54762)
MARK1 (human) = MARK1 (human) (UniProt Q9P0L2)
MARK3 (human) = MARK3 (human) (UniProt P27448)
CSNK1G2 (human) = CSNK1G2 (human) (UniProt P78368)
HIPK4 (human) = HIPK4 (human) (UniProt Q8NE63)
NTRK2 (human) = NTRK2 (human) (UniProt Q16620)
CHEK2 (human) = CHEK2 (human) (UniProt O96017)
CDK1 CCNA2 (human) = CDK1 CCNA2 (human) (UniProt P06493+P20248)
STK17A (human) = STK17A (human) (UniProt Q9UEE5)
GSG2 (human) = GSG2 (human) (UniProt Q8TF76)
KIT (human) = KIT (human) (UniProt P10721)
CSNK2A2 (human) = CSNK2A2 (human) (UniProt P19784)
GRK6 (human) = GRK6 (human) (UniProt P43250)
BRSK2 (human) = BRSK2 (human) (UniProt Q8IWQ3)
LCK (human) = LCK (human) (UniProt P06239)
ABL2 (human) = ABL2 (human) (UniProt P42684)
TAOK3 (human) = TAOK3 (human) (UniProt Q9H2K8)
NUAK2 (human) = NUAK2 (human) (UniProt Q9H093)
CSK (human) = CSK (human) (UniProt P41240)
FLT3 (human) = FLT3 (human) (UniProt P36888)
MAPKAPK2 (human) = MAPKAPK2 (human) (UniProt P49137)
OXSR1 (human) = OXSR1 (human) (UniProt O95747)
MKNK2 (human) = MKNK2 (human) (UniProt Q9HBH9)
PIM1 (human) = PIM1 (human) (UniProt P11309)
FRK (human) = FRK (human) (UniProt P42685)
CDK4 CCND1 (human) = CDK4 CCND1 (human) (UniProt P24385+P11802)

Chain of CSNK2A2 (human) (P19784 whole entry, looked up): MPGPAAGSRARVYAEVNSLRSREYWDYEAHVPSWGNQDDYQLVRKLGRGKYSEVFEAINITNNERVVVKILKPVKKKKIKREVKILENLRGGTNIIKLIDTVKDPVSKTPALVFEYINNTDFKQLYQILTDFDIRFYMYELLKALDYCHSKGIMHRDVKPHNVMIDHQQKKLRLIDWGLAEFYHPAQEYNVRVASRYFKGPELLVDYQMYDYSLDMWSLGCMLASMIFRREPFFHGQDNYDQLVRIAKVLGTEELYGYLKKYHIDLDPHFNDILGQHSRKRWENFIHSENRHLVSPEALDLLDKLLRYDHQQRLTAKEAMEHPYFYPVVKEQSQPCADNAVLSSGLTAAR
Chain of AURKB (human) (Q96GD4 whole entry, looked up): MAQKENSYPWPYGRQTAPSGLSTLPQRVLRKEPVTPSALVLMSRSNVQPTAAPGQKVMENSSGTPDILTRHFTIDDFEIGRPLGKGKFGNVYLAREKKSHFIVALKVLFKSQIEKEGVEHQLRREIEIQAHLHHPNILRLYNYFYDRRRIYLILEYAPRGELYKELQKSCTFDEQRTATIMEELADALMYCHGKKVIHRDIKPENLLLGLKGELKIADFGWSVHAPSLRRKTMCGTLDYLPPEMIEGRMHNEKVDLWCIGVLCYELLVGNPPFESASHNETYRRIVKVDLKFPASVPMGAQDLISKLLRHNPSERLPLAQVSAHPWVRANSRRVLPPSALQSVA
Chain of BRSK2 (human) (Q8IWQ3 whole entry, looked up): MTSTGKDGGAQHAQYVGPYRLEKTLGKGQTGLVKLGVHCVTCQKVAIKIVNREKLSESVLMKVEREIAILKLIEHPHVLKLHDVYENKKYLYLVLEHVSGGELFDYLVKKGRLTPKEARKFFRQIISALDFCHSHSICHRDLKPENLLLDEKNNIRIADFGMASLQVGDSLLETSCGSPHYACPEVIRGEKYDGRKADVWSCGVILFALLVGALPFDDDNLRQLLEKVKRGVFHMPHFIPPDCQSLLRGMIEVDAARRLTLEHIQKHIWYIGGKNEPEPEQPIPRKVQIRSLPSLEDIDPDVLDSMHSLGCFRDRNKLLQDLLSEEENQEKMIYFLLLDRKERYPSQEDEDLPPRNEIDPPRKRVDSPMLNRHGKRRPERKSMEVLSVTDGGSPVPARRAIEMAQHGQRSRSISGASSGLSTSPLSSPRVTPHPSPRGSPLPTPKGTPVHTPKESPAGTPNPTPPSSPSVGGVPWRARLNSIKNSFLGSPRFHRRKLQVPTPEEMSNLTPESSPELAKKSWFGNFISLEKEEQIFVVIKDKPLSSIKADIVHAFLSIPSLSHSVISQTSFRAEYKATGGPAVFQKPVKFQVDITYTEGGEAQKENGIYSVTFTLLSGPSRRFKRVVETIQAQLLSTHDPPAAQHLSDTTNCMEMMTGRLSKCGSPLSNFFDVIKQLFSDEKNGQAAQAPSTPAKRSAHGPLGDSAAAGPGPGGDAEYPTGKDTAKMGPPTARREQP
Chain of HIPK4 (human) (Q8NE63 whole entry, looked up): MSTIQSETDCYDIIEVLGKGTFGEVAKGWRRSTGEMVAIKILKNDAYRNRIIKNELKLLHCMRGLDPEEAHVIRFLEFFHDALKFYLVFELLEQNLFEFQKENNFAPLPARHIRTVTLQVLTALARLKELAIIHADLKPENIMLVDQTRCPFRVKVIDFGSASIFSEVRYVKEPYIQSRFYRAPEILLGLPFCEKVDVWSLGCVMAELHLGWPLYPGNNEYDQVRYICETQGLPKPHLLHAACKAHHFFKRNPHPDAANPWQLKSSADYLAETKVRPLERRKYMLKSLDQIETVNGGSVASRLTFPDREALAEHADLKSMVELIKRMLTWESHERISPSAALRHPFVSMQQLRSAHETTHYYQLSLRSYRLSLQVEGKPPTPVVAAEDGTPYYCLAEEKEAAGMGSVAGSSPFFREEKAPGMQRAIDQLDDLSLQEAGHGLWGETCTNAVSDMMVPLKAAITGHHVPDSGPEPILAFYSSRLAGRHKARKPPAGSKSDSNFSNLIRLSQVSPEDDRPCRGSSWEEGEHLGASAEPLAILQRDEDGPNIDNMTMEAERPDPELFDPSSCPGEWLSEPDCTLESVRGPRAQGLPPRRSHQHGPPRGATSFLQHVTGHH
Chain of NTRK2 (human) (Q16620 whole entry, looked up): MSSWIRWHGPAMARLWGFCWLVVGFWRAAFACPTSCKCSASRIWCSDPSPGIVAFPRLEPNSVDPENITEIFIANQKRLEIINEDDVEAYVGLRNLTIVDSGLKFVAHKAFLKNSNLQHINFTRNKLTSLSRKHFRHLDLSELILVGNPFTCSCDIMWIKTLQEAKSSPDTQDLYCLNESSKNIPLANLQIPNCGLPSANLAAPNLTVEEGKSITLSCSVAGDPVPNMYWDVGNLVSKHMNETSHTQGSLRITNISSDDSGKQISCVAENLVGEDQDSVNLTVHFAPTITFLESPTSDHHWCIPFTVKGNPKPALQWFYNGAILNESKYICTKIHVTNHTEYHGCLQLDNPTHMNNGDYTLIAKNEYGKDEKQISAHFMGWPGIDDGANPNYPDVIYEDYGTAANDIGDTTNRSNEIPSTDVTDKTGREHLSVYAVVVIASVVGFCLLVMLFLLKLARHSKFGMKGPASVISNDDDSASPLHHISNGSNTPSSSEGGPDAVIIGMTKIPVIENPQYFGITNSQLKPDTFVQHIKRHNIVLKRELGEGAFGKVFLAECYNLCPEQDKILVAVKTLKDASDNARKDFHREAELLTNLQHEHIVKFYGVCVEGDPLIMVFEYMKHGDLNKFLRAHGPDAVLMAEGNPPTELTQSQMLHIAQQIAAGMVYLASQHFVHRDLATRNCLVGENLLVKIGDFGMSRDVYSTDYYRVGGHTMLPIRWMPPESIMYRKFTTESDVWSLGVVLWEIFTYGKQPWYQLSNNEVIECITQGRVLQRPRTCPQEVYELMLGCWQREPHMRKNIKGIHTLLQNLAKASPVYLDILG
Chain of FLT3 (human) (P36888 whole entry, looked up): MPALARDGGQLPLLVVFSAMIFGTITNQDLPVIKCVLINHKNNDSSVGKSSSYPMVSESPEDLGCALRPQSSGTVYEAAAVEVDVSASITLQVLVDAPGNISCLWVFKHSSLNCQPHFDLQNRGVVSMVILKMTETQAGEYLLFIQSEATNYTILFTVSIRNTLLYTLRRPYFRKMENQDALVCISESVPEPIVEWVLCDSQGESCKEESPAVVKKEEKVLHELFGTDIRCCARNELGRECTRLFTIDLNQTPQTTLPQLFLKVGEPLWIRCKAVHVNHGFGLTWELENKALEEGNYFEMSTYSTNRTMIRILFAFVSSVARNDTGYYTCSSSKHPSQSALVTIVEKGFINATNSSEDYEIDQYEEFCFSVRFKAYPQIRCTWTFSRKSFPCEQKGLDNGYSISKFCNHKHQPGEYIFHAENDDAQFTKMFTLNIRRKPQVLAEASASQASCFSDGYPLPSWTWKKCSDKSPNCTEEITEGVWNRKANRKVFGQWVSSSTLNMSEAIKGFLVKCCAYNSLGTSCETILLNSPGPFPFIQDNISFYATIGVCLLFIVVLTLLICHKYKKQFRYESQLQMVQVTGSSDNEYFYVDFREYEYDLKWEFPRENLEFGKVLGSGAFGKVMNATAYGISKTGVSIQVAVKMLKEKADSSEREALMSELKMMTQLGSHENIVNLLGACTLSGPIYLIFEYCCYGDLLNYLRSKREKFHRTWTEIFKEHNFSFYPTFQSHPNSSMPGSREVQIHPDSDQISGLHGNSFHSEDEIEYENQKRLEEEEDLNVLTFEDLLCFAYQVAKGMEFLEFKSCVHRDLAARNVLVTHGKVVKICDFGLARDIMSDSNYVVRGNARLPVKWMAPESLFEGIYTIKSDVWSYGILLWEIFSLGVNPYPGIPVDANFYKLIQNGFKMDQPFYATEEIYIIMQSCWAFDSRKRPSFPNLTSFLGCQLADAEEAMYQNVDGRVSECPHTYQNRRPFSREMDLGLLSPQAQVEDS
Chain of MKNK2 (human) (Q9HBH9 whole entry, looked up): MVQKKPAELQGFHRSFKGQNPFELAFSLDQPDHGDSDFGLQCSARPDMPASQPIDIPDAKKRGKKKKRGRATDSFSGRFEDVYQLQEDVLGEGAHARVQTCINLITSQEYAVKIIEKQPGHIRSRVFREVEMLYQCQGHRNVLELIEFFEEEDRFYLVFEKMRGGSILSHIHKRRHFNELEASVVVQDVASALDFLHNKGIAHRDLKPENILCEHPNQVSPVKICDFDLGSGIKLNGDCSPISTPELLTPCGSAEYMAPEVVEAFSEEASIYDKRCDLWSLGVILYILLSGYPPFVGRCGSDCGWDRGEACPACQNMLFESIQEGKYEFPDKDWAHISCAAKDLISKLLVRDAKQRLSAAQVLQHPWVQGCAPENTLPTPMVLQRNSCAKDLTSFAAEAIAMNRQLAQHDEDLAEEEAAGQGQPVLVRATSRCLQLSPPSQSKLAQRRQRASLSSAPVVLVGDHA
Chain of ACVRL1 (human) (P37023 whole entry, looked up): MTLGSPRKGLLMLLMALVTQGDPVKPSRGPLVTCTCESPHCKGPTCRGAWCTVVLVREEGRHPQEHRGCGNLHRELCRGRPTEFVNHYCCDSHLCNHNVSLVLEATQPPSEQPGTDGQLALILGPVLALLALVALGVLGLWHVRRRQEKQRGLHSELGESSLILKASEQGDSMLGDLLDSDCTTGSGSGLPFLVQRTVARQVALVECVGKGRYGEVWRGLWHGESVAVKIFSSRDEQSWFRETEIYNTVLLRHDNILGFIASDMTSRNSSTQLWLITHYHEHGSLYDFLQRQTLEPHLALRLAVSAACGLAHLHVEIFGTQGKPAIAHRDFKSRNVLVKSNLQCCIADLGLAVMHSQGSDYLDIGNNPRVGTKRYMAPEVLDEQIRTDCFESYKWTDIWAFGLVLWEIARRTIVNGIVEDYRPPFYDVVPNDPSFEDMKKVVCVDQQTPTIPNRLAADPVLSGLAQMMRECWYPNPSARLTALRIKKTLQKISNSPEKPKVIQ

For Cn1nc2c3c(cccc31)C(=O)c1ccccc1-2, the residual activity (PRKCB1 (human)) was 94.7%, the residual activity (PRKD1 (human)) was 69.3% and the residual activity (CDK2 CCNA2 (human)) was 105%. It also gave a residual activity (AURKB (human)) of 83.5%, a residual activity (PIM3 (human)) of 76.8% and a residual activity (STK39 (human)) of 101%. The residual activity (MINK1 (human)) was 92.3%, the residual activity (MAP4K2 (human)) was 75.4% and the residual activity [1] was 89.4%. The residual activity (AKT1 (human)) was 99.1%, the residual activity (NEK4 (human)) was 89.8% and the residual activity (RPS6KA3 KD1 KD2 (human)) was 97.3%. For the same compound, the residual activity (CSNK1E (human)) was 34.3%, the residual activity (IGF1R (human)) was 95.9% and the residual activity (ACVRL1 (human)) was 102%. The residual activity (EPHA2 (human)) was 104%, the residual activity (EPHB1 (human)) was 94.6% and the residual activity (MARK1 (human)) was 95.7%. The residual activity (MARK3 (human)) was 96.6%, the residual activity (CSNK1G2 (human)) was 91.5% and the residual activity (HIPK4 (human)) was 102%. It also gave a residual activity (NTRK2 (human)) of 84%, a residual activity (CHEK2 (human)) of 89.8% and a residual activity (CDK1 CCNA2 (human)) of 88%. For the same compound, the residual activity (STK17A (human)) was 83.7%, the residual activity (GSG2 (human)) was 53.1% and the residual activity (KIT (human)) was 86.4%. The residual activity (CSNK2A2 (human)) was 86.6%, the residual activity (GRK6 (human)) was 89.2% and the residual activity (BRSK2 (human)) was 96.4%. For the same compound, the residual activity (LCK (human)) was 99.2%, the residual activity (ABL2 (human)) was 97.8% and the residual activity (TAOK3 (human)) was 87.6%. For the same compound, the residual activity (NUAK2 (human)) was 85.7%, the residual activity (CSK (human)) was 88.7% and the residual activity (FLT3 (human)) was 59.3%. For the same compound, the residual activity (MAPKAPK2 (human)) was 102%, the residual activity (OXSR1 (human)) was 102% and the residual activity (MKNK2 (human)) was 94.1%. For the same compound, the residual activity (PIM1 (human)) was 80.3%, the residual activity (FRK (human)) was 94.3% and the residual activity (CDK4 CCND1 (human)) was 98.9%.

In the case of CC(C)c1nn(-c2c(Cl)cccc2Cl)c2nc(Cc3ccc(OCCO)cc3)nc(O)c12, the residual activity (PRKCB1 (human)) is reported as 101%, the residual activity (PRKD1 (human)) is reported as 103% and the residual activity (CDK2 CCNA2 (human)) is reported as 1.96%. The residual activity (AURKB (human)) was 104%, the residual activity (PIM3 (human)) was 105% and the residual activity (STK39 (human)) was 99.9%. The residual activity (MINK1 (human)) was 97.1%, the residual activity (MAP4K2 (human)) was 106% and the residual activity [1] was 111%. The residual activity (AKT1 (human)) was 94.7%, the residual activity (NEK4 (human)) was 96.3% and the residual activity (RPS6KA3 KD1 KD2 (human)) was 88.4%. It also gave a residual activity (CSNK1E (human)) of 83.6%, a residual activity (IGF1R (human)) of 24.8% and a residual activity (ACVRL1 (human)) of 103%. For the same compound, the residual activity (EPHA2 (human)) was 100%, the residual activity (EPHB1 (human)) was 91.3% and the residual activity (MARK1 (human)) was 93.3%. The residual activity (MARK3 (human)) was 92.2%, the residual activity (CSNK1G2 (human)) was 95.7% and the residual activity (HIPK4 (human)) was 94.7%. For the same compound, the residual activity (NTRK2 (human)) was 101%, the residual activity (CHEK2 (human)) was 98.8% and the residual activity (CDK1 CCNA2 (human)) was 7.71%. It also gave a residual activity (STK17A (human)) of 98.3%, a residual activity (GSG2 (human)) of 94.3% and a residual activity (KIT (human)) of 71%. For the same compound, the residual activity (CSNK2A2 (human)) was 92.2%, the residual activity (GRK6 (human)) was 101% and the residual activity (BRSK2 (human)) was 98.3%. For the same compound, the residual activity (LCK (human)) was 88.6%, the residual activity (ABL2 (human)) was 96.3% and the residual activity (TAOK3 (human)) was 91.3%. It also gave a residual activity (NUAK2 (human)) of 91.7%, a residual activity (CSK (human)) of 106% and a residual activity (FLT3 (human)) of 74.2%. For the same compound, the residual activity (MAPKAPK2 (human)) was 95.4%, the residual activity (OXSR1 (human)) was 93.8% and the residual activity (MKNK2 (human)) was 88.9%. It also gave a residual activity (PIM1 (human)) of 99%, a residual activity (FRK (human)) of 89.6% and a residual activity (CDK4 CCND1 (human)) of 86.8%.

With O=C1NC(=O)C(c2c[nH]c3ccccc23)=C1c1c[nH]c2ccccc12 the residual activity (PRKCB1 (human)) was 26.1%, the residual activity (PRKD1 (human)) was 97.6% and the residual activity (CDK2 CCNA2 (human)) was 81.9%. For the same compound, the residual activity (AURKB (human)) was 89.3%, the residual activity (PIM3 (human)) was 32.7% and the residual activity (STK39 (human)) was 93.6%. For the same compound, the residual activity (MINK1 (human)) was 83.4%, the residual activity (MAP4K2 (human)) was 84.9% and the residual activity [1] was 109%. It also gave a residual activity (AKT1 (human)) of 87.7%, a residual activity (NEK4 (human)) of 96.4% and a residual activity (RPS6KA3 KD1 KD2 (human)) of 46.7%. It also gave a residual activity (CSNK1E (human)) of 92.4%, a residual activity (IGF1R (human)) of 80% and a residual activity (ACVRL1 (human)) of 96.5%. The residual activity (EPHA2 (human)) was 91.6%, the residual activity (EPHB1 (human)) was 83.1% and the residual activity (MARK1 (human)) was 90.6%. The residual activity (MARK3 (human)) was 98.5%, the residual activity (CSNK1G2 (human)) was 92% and the residual activity (HIPK4 (human)) was 109%. The residual activity (NTRK2 (human)) was 90.7%, the residual activity (CHEK2 (human)) was 124% and the residual activity (CDK1 CCNA2 (human)) was 96.3%. The residual activity (STK17A (human)) was 92.2%, the residual activity (GSG2 (human)) was 84.7% and the residual activity (KIT (human)) was 68.5%. For the same compound, the residual activity (CSNK2A2 (human)) was 92%, the residual activity (GRK6 (human)) was 101% and the residual activity (BRSK2 (human)) was 86%. It also gave a residual activity (LCK (human)) of 85.1%, a residual activity (ABL2 (human)) of 82.3% and a residual activity (TAOK3 (human)) of 85.2%. The residual activity (NUAK2 (human)) was 86%, the residual activity (CSK (human)) was 103% and the residual activity (FLT3 (human)) was 16.1%. It also gave a residual activity (MAPKAPK2 (human)) of 95.6%, a residual activity (OXSR1 (human)) of 86.3% and a residual activity (MKNK2 (human)) of 89.6%. For the same compound, the residual activity (PIM1 (human)) was 17.2%, the residual activity (FRK (human)) was 88.2% and the residual activity (CDK4 CCND1 (human)) was 97.4%.
